Patent publication US5866570A, “Treatment of vascular leakage and related syndrome such as septic shock by administration of metalloproteinase inhibitors” (Wisconsin Alumni Research Foundation, priority 1994, dated 1999)
Each block holds one compound with its values, some of them ahead of it.

Assays:
[1] = system: MDA-MB-231 cells (human breast carcinoma); assay: in vitro invasion assay through matrigel (Transwell); assay type: cell-based; details: preliminary screen
Method: (§1) Razoxane, various bis(hydroxylated)(2,6-dioxopiperazine)s, and various hydrophobic analogs were tested in an in vitro assay for inhibition of tumor cell penetration of a reconstituted basement membrane, matrigel, isolated from the Englegbreth-Holm-Swarm (EHS) tumor (disclosed in Kleinman et al., Biochem. (1982), 24, 6188-6193) first described by Albini et al, Cancer Res. (1987) 47, 3234-3245. An 8 μm pore filter coated with matrigel separates a lower compartment containing a chemoattractant and an upper compartment containing the cells and test compound. In particular, the following compounds were tested: razoxane, (1α, 2α, 4α, 5α)-4,4'-(4,5-dihydroxy-1,2-cyclohexanediyl)bis(2,6-piperazinedione); (1α, 2α, 4β, 5β)-4,4'-(4,5-dihydroxy-1,2-cyclohexanediyl)bis(2,6-piperazinedione);(1β, 2α,4α,5α)-4,4'-(4,5-dihydroxy-1,2-cyclohexanediyl)bis(2,6-piperazinedione); (1β, 2α, 4α,5β)-4,4'-(4,5-dihydroxy-1,2-cyclohexanediyl)bis(2,6piperazinedione); (1α, 2β, 4α,5β)-4,4'-(4,5-dihydroxy-1,2cyclohexanediyl)bis(2,6-piperazinedione); N,N'-cyclohexane-1,2-diylbis[N(2-ethoxy-2-oxoethyl)]glycine; N,N'-4-cyclohexene-1,2-diylbis[N-(2-ethoxy-2-oxoethyl)-glycine ester; (3aα, 5β, 6β, 7aα)-4,4'-(hexahydro-2,2-dimethyl1,3-benzodioxole-5,6-diyl)bis(2,6-piperazinedione); (3aα, 5α, 6α, 7aα)-4,4'-(hexahydro-2,2-dimethyl-1,3-benzodioxole-5,6-diyl)bis(2,6- piperazinedione); (3aα, 5α, 6β, 7aα)-4,4'-(hexahydro-2,2-dimethyl-1,3-benzodioxole-5,6-diyl)bis-2,6- piperazinedione; (3aα, 5β, 6α, 7aβ)-4,4'-(hexahydro-2,2dimethyl-1,3-benzodioxole-5,6-diyl)bis(2,6-piperazinedione); and (3aα, 5α, 6β, 7aβ)-4,4'-(hexahydro-2,2-dimethyl-1,3-benzodioxole-5,6-diyl) bis(2,6piperazinedione). Metastatic cells are able to degrade the basement membrane protein barrier and migrate through the pores of the filter whereas non-metastatic cells remain on the upper surface. The cells that pass to the under side of the filter are then counted under a microscope. […] Variations of this assay have been used to correlate this in vitro invasion with metastatic potential in vivo (Albini et al. (Id.); Hendrix et al. Cancer Letters (1987); 38, 127-247; Repesh L. A., Invasion Metastasis (1989) 9, 192-208 to select for more highly invasive cells (Teranova et al., Proc. Nat. Acad. Sci., (1986), 83, 465, 464; Tullberg et al., Invasion Metastasis, (1989), 9, 13-26; Sefer et al., Biotechniques, (1990), 9, 324-331), and to test compounds for inhibition (Nakajima et al., Cancer Res. (1989), 49, 1698-1756).
(§2) This method has been improved to increase the number of assays which may be performed and analyzed per day. In particular, such improvement comprises the use of disposable Transwells (Costar) units described by Repesh et al., Invasion Metastasis, (1989), 9, 192-208, which consist of an 8 μm pore filter attached to an insert that fits in a 24 well culture plate. Matrigel concentration is titrated from zero to complete inhibition of motility of each invasive cell line used in the assay and for each batch of matrigel. The matrigel concentration which yields 50% or greater inhibition of motility in a 6 hr assay (usually from 15 to 50 μg of protein per filter) is chosen for determination of invasion. Motility of cells through the 8 μm filters is not by passive diffusion since the pore size is smaller than the cells, and is determined in the same chamber in the absence of matrigel. Motility is stimulated two-fold by the presence of fibroblast conditioned medium (3T3 cells) as a chemoattractant (data not shown). The cell lines used are HT-1080, a human fibrosarcoma, and MDA-MB-231, a human breast carcinoma (both available from the American Type Tissue Culture). These cell lines express both the 72 kD and the 92 kD collagenase type IV as determined by zymography (data not shown).
(§3) For inhibition studies, 5×10^5 cells are plated in 200 μl of DMEM+0.1% BSA+the inhibitor (or appropriate solvent control) into the upper chamber of the Transwell. […]

[2] = system: HT-1080 cells (human fibrosarcoma); assay: as above; assay type: cell-based
Method: as §1, §2, §3

[3] = molecular target: T1, E. coli recombinant human 72 kD collagenase type IV (MMP-2), pAPMA activated (Homo sapiens, UniProt P08253); assay: gelatinase assay (3H-gelatin degradation), Example 9; assay type: biochemical; details: 100 ng activated enzyme, 4 hrs preincubation with inhibitor at 37° C., 3H-gelatin substrate; read-out: IC50, inhibition of collagenase type IV gelatinase activity
T1 construct: made in house; host or cells: E. coli
T1 sequence (P08253 110-660): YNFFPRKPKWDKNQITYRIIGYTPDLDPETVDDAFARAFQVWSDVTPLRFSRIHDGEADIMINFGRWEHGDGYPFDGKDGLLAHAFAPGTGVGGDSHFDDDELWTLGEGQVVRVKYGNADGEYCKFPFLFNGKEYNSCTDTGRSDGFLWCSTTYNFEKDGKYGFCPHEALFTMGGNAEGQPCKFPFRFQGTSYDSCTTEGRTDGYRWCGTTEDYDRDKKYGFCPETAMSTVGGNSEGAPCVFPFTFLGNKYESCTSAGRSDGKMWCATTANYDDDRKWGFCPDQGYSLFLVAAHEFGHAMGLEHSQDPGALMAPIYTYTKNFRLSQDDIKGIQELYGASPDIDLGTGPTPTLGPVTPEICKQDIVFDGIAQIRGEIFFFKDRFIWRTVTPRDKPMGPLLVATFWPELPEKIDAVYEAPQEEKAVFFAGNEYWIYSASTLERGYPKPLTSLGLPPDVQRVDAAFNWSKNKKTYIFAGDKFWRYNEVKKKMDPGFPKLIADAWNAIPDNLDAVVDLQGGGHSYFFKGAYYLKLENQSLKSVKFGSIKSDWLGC
Description: Type IV collagenases are highly efficient in digesting gelatin. Inhibition of the gelatinase activity of human recombinant collagenase type IV was used as an initial assay for testing the bis(dioxopiperazine)s. The recombinant 72 kD collagenase IV used in the gelatinase assays was made in E. coli from a cDNA insert obtained from Dr. William Stetler-Stevenson (NCI). The protein runs at 72 kD on SDS-PAGE, has gelatinolytic activity in zymogram, is activated by pAPMA, is precipitated by a monoclonal anti-peptide antibody to the pro-region of the 72 kD enzyme, and is inhibited by TIMP-2. Rat tail ^3 H-collagen I (Dupont-NEN) is denatured to become gelatin by heating at 60° C. for 20 min. E. coli recombinant human 72 kD collagenase type IV is activated by incubation with 1 mM pAPMA for 1 hr. at 37° C. 100 ng of activated enzyme is added to each tube containing 50 mM Tris-HCl pH 7.5, 5 mM CaCl2 and 0.005% Brij-35 and pre-incubated with inhibitor or solvent control for 4 hrs. at 37° C. in a total of 25 μl. 10,000 cpm of ^3 H-gelatin substrate in 30 μl is added (final volume of 55 μl per sample) and the reaction mixture is incubated at 37° C. for 2 to 16 hrs. […] Enzyme activity is calculated from the radioactivity in the supernatant and activity of the compounds expressed as percent solvent control.

V-79A fibroblasts = details: tissue culture; cited from earlier work
metastases = details: in vivo; cited from earlier work
B16-F10 melanoma cells = details: pretreatment of B16-F10 cells at 2, 20 and 100 μM; cited from earlier work

IC50 [3]: 45 µM
Structure (SMILES): CC1(C)O[C@H]2C[C@@H](N3CC(=O)NC(=O)C3)[C@H](N3CC(=O)NC(=O)C3)C[C@H]2O1 (relative stereo) [Compound 78]
inhibition of invasion [1]: inhibit invasion
effect on cell motility ([1]; no matrigel): without inhibiting cell motility
inhibition at 290 µM ([2]; Homo sapiens, HT-1080, at 290 μM, 6 hour assay, read-out: maximum inhibition of invasion): 25%
inhibition of invasion ([2]; preliminary screen): inhibit invasion
effect on cell motility ([2]; preliminary screen, no matrigel): without inhibiting cell motility

Structure (SMILES): O=C1CN([C@@H]2C[C@H]2N2CC(=O)NC(=O)C2)CC(=O)N1 (relative stereo) [trans-15]
cytotoxic activity (V-79A fibroblasts): inactive
effect on development of metastases (metastases): stimulates

Structure (SMILES): O=C1CN2CCN3CC(=O)NC(=O)[C@H]3[C@@H]2C(=O)N1 (relative stereo) [trans-20]
metastasis to the lungs after pretreatment of the cells (B16-F10 melanoma cells): significantly reduces the metastasis

Structure (SMILES): O=C1CN([C@@H]2C[C@@H]2N2CC(=O)NC(=O)C2)CC(=O)N1 [cis-16, cis-4,4'-(cyclopropanediyl) bis(2,6)dioxopiperazine]
effect on development of metastases (metastases): inhibits

Structure (SMILES): O=C1CN2CCN3CC(=O)NC(=O)[C@H]3[C@H]2C(=O)N1 [cis-21]
metastasis to the lungs after pretreatment of the cells (B16-F10 melanoma cells): ineffective
